Measured values from paper PMC9719519, “Non-classical ferroptosis inhibition by a small molecule targeting PHB2” (Nature Communications, 2022).

Assays:
Experiment in all cases: biochemical
Set-up in all cases: Eurofins recombinant human kinase profiling, remaining kinase activity as % of control, 10 uM ATP
Settings in all cases: ATP 10 uM; read-out: %Ctrl@10 μM
[1] = biological target: EGFR(T790M,L858R)(h) (Homo sapiens, UniProt P00533, L858R/T790M)
How it was run: (§1)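 Activity measured in a commercial panel of 401 recombinant human protein kinases run as a kinase profiling service.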

[2] = biological target: T1, CaMKIδ(h) (Homo sapiens, UniProt Q8IU85)
T1 construct: gene CAMK1D
How it was run: as §1

[3] = biological target: Wee1(h) (Homo sapiens, UniProt P30291)
How it was run: as §1

[4] = biological target: CDK3/cyclinE(h) (Homo sapiens, UniProt Q00526)
How it was run: as §1

[5] = biological target: MAP4K5(h) (Homo sapiens, UniProt Q9Y4K4)
How it was run: as §1

[6] = biological target: T2, Mnk2(h) (Homo sapiens, UniProt Q9HBH9)
T2 construct: gene MKNK2
How it was run: as §1

[7] = biological target: T3, Tie2(R849W)(h) (Homo sapiens, UniProt Q02763, R849W)
T3 construct: gene TEK
How it was run: as §1

[8] = biological target: STK33(h) (Homo sapiens, UniProt Q9BYT3)
How it was run: as §1

[9] = biological target: ErbB4(h) (Homo sapiens, UniProt Q15303)
How it was run: as §1

[10] = biological target: T4, PI3 Kinase (p110(E542K)/p85)(h) (Homo sapiens, UniProt P42336, E542K)
T4 construct: gene PIK3CA
How it was run: as §1

[11] = biological target: FGFR1(V561M)(h) (Homo sapiens, UniProt P11362, V561M)
How it was run: as §1

[12] = biological target: NEK6(h) (Homo sapiens, UniProt Q9HC98)
How it was run: as §1

[13] = biological target: MELK(h) (Homo sapiens, UniProt Q14680)
How it was run: as §1

[14] = biological target: PAK1(h) (Homo sapiens, UniProt Q13153)
How it was run: as §1

[15] = biological target: T5, PKCε(h) (Homo sapiens, UniProt Q02156)
T5 construct: gene PRKCE
How it was run: as §1

[16] = biological target: T6, LKB1(h) (Homo sapiens, UniProt Q15831)
T6 construct: gene STK11
How it was run: as §1

[17] = biological target: T7, PKCγ(h) (Homo sapiens, UniProt P05129)
T7 construct: gene PRKCG
How it was run: as §1

[18] = biological target: DAPK1(h) (Homo sapiens, UniProt P53355)
How it was run: as §1

[19] = biological target: T8, PKBα(h) (Homo sapiens, UniProt P31749)
T8 construct: gene AKT1
How it was run: as §1

[20] = biological target: DYRK3(h) (Homo sapiens, UniProt O43781)
How it was run: as §1

[21] = biological target: T9, PhKγ1(h) (Homo sapiens, UniProt Q16816)
T9 construct: gene PHKG1
How it was run: as §1

[22] = biological target: LIMK2(h) (Homo sapiens, UniProt P53671)
How it was run: as §1

LIMK2(h), sequence (P53671 whole entry): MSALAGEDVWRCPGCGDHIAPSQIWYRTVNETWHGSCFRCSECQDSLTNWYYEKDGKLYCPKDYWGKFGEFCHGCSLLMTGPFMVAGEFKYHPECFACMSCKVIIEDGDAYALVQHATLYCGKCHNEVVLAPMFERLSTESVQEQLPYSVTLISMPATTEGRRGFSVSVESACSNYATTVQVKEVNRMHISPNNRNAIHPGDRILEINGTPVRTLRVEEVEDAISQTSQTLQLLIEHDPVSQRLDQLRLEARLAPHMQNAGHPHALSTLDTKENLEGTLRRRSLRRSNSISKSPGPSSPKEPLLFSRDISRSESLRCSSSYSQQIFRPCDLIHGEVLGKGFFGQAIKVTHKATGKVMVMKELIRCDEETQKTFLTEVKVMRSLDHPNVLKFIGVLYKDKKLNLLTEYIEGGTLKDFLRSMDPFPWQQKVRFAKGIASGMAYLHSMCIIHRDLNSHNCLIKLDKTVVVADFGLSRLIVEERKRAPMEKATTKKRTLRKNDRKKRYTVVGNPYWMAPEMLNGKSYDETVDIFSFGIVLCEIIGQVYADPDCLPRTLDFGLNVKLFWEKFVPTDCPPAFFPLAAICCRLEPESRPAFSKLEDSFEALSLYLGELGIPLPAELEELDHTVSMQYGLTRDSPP
NEK6(h), sequence (Q9HC98 whole entry): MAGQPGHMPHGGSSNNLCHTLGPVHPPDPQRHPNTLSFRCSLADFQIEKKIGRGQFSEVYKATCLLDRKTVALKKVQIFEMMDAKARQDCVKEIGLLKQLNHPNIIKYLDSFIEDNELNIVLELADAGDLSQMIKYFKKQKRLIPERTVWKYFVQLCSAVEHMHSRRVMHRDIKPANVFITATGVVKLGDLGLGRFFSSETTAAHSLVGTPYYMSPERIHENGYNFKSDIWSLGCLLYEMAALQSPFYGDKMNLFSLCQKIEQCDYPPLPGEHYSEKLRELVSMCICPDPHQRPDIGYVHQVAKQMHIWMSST
T8 sequence (P31749 whole entry): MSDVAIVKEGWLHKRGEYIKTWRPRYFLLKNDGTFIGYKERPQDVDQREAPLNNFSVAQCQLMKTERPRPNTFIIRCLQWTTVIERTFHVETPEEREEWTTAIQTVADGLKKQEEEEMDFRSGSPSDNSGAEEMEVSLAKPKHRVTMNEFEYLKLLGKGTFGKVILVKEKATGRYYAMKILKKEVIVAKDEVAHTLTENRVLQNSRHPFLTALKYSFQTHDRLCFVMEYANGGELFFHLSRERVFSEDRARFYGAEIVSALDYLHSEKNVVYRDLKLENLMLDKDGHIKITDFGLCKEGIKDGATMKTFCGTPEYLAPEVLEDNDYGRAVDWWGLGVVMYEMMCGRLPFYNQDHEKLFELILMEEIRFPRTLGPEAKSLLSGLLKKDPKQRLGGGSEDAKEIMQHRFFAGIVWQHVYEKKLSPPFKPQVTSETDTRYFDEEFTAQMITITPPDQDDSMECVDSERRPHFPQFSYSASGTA
DAPK1(h), sequence (P53355 whole entry): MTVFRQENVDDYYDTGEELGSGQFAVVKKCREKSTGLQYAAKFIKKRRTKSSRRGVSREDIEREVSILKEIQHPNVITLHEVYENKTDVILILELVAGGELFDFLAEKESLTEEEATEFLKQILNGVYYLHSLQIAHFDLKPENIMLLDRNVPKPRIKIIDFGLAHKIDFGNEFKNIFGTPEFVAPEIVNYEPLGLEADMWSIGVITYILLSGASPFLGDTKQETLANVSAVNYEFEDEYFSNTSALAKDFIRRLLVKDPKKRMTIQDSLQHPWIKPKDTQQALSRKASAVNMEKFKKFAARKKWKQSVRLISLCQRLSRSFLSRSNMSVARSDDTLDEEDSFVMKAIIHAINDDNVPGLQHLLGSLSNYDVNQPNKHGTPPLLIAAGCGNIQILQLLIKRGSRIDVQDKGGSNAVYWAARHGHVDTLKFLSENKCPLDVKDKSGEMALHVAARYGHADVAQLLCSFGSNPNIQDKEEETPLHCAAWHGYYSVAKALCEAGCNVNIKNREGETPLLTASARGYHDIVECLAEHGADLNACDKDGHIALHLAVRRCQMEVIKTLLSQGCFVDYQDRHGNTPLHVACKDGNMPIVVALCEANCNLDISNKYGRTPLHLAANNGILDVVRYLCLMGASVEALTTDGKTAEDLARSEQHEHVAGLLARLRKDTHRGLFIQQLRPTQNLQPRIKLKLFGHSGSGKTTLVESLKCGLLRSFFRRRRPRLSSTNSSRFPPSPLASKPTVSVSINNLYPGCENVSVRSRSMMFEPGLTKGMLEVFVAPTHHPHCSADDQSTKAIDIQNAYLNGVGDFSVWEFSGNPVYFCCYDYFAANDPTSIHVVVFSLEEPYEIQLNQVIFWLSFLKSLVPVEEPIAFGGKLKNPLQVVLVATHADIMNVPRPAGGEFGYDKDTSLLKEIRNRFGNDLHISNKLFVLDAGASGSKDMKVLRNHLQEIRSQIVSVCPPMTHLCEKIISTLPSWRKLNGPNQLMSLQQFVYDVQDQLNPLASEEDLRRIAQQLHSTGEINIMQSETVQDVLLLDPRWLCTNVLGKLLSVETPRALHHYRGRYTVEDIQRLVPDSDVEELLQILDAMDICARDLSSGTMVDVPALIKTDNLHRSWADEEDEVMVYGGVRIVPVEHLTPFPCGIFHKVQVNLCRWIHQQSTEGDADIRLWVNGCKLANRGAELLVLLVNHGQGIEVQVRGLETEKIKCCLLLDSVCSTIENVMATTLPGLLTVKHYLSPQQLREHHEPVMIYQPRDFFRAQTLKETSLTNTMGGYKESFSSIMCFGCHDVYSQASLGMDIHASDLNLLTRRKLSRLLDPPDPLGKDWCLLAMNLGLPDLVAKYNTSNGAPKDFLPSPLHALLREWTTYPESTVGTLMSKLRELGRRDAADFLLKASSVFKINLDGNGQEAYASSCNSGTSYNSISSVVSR
T6 sequence (Q15831 whole entry): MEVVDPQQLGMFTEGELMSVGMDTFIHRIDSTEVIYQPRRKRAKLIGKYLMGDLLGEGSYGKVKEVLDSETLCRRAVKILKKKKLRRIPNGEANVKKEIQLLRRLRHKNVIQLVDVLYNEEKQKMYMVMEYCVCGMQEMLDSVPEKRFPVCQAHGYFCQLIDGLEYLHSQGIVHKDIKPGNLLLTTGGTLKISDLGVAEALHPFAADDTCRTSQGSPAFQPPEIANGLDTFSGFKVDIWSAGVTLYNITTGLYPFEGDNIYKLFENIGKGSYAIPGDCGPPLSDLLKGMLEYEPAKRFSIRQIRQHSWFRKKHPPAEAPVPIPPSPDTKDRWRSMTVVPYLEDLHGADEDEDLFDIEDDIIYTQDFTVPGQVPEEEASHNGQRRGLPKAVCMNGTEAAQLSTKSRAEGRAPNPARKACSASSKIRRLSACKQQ
T6 sequence (Q7RTN6 whole entry partner): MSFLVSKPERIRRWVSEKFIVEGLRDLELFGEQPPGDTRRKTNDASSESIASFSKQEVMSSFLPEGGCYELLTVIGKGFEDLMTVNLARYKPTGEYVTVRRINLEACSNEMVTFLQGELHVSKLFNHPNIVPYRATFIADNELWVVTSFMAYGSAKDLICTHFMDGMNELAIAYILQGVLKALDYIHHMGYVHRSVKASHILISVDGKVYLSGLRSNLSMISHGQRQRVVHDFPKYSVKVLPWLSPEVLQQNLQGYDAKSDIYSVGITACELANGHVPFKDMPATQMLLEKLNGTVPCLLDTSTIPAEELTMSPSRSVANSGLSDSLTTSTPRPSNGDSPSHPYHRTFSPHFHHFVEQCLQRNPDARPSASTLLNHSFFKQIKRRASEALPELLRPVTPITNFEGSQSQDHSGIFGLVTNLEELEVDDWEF
T6 sequence (Q9Y376 whole entry partner): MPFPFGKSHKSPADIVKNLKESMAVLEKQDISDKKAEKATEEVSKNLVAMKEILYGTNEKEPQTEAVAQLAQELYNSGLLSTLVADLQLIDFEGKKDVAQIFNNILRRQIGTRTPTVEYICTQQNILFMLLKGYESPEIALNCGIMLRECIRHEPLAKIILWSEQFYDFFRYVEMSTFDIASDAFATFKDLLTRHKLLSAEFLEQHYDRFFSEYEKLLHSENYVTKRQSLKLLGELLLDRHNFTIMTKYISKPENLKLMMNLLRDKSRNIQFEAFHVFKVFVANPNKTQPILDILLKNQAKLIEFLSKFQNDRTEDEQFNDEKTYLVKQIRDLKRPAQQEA
MAP4K5(h), sequence (Q9Y4K4 whole entry): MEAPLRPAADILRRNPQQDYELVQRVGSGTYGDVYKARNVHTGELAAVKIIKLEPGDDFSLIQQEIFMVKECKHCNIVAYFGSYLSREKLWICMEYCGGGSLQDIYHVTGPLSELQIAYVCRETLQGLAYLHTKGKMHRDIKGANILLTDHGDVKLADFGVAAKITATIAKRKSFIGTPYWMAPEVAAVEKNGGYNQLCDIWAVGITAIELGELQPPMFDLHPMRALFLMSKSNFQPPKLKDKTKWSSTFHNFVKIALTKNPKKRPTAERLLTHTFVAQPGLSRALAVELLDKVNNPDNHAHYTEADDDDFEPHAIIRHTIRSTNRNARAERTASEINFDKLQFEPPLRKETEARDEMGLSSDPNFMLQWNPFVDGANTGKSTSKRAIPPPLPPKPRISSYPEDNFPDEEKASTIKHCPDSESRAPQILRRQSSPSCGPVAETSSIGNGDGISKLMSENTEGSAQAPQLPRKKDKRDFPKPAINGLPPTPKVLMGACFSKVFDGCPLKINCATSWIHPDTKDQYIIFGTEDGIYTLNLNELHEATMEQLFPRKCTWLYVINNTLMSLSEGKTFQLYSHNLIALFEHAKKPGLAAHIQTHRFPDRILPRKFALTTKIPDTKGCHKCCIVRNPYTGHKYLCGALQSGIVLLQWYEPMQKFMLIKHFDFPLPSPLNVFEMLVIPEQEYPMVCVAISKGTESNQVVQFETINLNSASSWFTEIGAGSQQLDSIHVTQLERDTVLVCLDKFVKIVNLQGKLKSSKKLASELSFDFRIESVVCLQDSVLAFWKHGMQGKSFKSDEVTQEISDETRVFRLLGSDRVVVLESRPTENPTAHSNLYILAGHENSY

Structure (SMILES): C1=C(c2nc(-c3cnn(C4CCNCC4)c3)cn3cc(-c4ccccc4)nc23)CCOC1 [YL-939]
- remaining activity at 10 µM [1]: 91%
- remaining activity at 10 µM [2]: 90%
- remaining activity at 10 µM [3]: 99%
- remaining activity at 10 µM [4]: 102%
- remaining activity at 10 µM [5]: 76%
- remaining activity at 10 µM [6]: 74%
- remaining activity at 10 µM [7]: 122%
- remaining activity at 10 µM [8]: 105%
- remaining activity at 10 µM [9]: 99%
- remaining activity at 10 µM [10]: 99%
- remaining activity at 10 µM [11]: 65%
- remaining activity at 10 µM [12]: 97%
- remaining activity at 10 µM [13]: 91%
- remaining activity at 10 µM [14]: 85%
- remaining activity at 10 µM [15]: 95%
- remaining activity at 10 µM [16]: 87%
- remaining activity at 10 µM [17]: 96%
- remaining activity at 10 µM [18]: 82%
- remaining activity at 10 µM [19]: 68%
- remaining activity at 10 µM [20]: 77%
- remaining activity at 10 µM [21]: 85%
- remaining activity at 10 µM [22]: 85%
